{"source": "ChEMBL document CHEMBL1201862", "about": "“PubChem BioAssay data set” (2004)", "key": {"[1]": {"experiment": "inhibitors of firefly luciferase expression or activity, dose response, H4 neuroglioma cells, luminescence (AID 1990)", "format": "functional, cell-based"}, "cells [2]": {"experiment": "cells", "format": "functional, cell-based"}, "[3]": {"experiment": "Luminescence Cell-Based Dose Response HTS to Identify Inhibitors of 5'UTR Stem-Loop Driven Prion Protein mRNA Translation in H4 Neuroglioblastoma Cells. [Related pubchem assays: 1827 (Project Summary), 1813 (Primary HTS)]", "format": "functional"}, "[4]": {"molecular_target": "T1, Heat shock factor protein 1 (Mus musculus, UniProt P38532)", "T1 sequence (P38532 whole entry)": "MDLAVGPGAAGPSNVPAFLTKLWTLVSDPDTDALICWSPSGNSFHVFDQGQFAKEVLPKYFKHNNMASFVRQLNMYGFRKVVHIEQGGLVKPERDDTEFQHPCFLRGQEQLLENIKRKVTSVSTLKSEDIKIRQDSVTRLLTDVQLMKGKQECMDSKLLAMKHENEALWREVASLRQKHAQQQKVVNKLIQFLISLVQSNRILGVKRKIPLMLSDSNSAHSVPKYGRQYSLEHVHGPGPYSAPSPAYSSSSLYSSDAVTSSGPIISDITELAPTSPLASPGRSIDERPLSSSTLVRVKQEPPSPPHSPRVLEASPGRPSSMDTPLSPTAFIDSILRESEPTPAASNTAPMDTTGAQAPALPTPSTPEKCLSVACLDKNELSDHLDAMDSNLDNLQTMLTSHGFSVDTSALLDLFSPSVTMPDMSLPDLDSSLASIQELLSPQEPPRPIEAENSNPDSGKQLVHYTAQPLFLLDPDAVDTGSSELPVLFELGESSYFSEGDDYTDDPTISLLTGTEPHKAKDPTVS", "experiment": "inhibition of MG132-induced HSE-luciferase signal, confirmation, cell-based, NIH3T3, luminescence, dose retest (AID 2382);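 note: NIH3T3 fibroblasts with HSF1-driven luciferase reporter stressed by proteasome inhibitor MG132; luminescence from HSF1-driven luciferase expression after 8 hours of MG132 stress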", "format": "functional"}, "[5]": {"experiment": "inhibitors of SNCA 5'UTR-driven reporter translation, confirmation, H4 neuroglioma cells, luminescence (AID 1988)", "format": "functional, cell-based"}, "[6]": {"experiment": "inhibitors of intracellular T. cruzi replication, confirmation, NIH3T3 host cells, beta-gal luminescence (AID 2044);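 note: luminescent beta-galactosidase reporter signal from transgenic T. cruzi replicating inside host cells; inhibitors lower the luminescence signal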", "format": "functional, cell-based"}, "cells [7]": {"experiment": "cells", "format": "functional, cell-based", "remark": "listed apart in the source"}, "[8]": {"molecular_target": "T2, Kappa-type opioid receptor (Homo sapiens, UniProt P41145)", "T2 sequence (P41145 whole entry)": "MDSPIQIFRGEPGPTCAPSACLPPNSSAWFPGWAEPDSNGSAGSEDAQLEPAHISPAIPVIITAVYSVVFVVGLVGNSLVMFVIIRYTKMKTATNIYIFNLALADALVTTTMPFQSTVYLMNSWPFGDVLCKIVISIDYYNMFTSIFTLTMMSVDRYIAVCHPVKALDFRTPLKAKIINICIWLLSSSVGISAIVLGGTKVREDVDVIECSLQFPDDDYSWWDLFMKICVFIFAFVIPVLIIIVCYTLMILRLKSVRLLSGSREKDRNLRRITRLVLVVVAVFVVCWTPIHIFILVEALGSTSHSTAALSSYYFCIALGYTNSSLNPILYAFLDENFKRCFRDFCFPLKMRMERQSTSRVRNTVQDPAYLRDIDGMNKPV", "format": "functional"}, "[9]": {"experiment": "cytotoxicity toward NIH3T3 fibroblasts, dose response, counter-screen, cell-based, ATP luminescence, mouse fibroblasts (AID 2010);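 note: cells exposed to compound for about 90 hours before reading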", "format": "functional"}, "Beta-galactosidase": {"molecular_target": "Beta-galactosidase (Escherichia coli, UniProt Q8VNN2)", "sequence (Q8VNN2 whole entry)": "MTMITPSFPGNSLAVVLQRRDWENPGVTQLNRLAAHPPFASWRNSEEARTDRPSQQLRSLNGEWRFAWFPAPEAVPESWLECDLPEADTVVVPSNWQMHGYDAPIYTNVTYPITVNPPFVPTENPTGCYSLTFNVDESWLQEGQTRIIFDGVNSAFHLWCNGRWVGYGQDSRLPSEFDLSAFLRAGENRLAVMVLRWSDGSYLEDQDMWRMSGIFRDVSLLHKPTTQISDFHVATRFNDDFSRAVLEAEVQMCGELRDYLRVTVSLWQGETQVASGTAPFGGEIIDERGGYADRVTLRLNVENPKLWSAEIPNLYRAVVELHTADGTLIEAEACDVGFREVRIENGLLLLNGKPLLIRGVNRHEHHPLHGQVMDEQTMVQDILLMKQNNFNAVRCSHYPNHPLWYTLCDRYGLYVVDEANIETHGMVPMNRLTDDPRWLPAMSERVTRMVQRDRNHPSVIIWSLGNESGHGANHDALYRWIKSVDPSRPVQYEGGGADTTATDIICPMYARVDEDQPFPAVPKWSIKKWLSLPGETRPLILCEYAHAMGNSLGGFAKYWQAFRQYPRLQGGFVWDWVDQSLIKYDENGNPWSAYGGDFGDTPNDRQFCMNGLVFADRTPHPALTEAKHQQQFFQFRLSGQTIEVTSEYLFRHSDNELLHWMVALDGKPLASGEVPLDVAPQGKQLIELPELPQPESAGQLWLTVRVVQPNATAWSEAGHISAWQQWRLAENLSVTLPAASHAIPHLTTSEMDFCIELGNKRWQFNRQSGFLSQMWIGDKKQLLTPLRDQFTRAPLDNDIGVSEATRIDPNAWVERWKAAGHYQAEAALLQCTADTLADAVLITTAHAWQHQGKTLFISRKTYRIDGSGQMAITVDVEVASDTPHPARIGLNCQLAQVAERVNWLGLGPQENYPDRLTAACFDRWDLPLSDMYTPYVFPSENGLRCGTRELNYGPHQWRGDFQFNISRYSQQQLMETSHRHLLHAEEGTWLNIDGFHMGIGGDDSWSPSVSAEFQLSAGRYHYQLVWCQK", "format": "functional"}, "[10]": {"molecular_target": "T2, Kappa-type opioid receptor", "format": "functional", "remark": "listed apart in the source"}, "Exodeoxyribonuclease V": {"molecular_target": "Exodeoxyribonuclease V (Escherichia coli (strain K12), UniProt P04993+P07648+P08394)", "sequence (P04993 whole entry)": "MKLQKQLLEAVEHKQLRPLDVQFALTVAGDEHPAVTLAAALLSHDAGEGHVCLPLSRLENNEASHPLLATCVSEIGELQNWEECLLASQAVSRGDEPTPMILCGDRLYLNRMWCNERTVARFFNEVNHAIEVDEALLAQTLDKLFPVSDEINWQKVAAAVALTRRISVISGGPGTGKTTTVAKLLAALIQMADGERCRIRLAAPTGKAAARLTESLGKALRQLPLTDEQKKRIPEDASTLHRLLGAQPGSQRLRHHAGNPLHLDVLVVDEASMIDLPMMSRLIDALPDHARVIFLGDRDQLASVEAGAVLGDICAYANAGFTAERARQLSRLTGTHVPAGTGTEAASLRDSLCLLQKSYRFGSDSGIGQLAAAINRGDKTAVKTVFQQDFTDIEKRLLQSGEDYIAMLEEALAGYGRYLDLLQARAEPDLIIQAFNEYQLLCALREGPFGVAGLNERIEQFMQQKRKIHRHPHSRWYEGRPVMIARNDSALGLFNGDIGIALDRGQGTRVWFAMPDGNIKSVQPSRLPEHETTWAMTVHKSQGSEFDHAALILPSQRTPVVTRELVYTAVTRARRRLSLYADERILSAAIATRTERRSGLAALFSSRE", "sequence (P07648 whole entry)": "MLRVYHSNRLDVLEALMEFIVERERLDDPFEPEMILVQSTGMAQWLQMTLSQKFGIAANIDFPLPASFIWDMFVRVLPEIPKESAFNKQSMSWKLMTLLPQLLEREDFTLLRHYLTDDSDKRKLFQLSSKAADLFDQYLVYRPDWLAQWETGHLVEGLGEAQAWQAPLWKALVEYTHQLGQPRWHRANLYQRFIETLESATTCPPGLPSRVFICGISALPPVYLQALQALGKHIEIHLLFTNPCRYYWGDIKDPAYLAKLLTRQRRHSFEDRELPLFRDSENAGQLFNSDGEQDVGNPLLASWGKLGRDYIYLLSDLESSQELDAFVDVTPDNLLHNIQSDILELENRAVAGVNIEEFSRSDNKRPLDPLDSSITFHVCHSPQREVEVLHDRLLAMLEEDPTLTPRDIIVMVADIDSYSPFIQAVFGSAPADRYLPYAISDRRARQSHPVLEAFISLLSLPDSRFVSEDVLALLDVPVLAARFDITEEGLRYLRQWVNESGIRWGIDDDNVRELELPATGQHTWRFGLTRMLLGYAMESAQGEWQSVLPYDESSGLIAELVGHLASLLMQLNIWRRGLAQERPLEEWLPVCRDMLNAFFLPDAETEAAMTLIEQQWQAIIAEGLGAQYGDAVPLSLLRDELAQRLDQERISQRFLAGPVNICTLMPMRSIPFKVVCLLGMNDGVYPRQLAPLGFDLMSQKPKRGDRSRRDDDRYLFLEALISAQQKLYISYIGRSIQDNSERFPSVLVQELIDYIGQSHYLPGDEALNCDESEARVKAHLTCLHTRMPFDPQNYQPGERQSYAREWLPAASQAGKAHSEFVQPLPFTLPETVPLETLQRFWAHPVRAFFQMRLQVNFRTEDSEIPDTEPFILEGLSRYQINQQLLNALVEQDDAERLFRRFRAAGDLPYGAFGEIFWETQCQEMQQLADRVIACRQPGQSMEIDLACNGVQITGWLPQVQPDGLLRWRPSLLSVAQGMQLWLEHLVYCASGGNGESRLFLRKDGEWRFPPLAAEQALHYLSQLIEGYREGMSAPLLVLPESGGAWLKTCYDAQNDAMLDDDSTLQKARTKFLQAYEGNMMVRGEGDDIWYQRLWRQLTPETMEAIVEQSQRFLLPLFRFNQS", "sequence (P08394 whole entry)": "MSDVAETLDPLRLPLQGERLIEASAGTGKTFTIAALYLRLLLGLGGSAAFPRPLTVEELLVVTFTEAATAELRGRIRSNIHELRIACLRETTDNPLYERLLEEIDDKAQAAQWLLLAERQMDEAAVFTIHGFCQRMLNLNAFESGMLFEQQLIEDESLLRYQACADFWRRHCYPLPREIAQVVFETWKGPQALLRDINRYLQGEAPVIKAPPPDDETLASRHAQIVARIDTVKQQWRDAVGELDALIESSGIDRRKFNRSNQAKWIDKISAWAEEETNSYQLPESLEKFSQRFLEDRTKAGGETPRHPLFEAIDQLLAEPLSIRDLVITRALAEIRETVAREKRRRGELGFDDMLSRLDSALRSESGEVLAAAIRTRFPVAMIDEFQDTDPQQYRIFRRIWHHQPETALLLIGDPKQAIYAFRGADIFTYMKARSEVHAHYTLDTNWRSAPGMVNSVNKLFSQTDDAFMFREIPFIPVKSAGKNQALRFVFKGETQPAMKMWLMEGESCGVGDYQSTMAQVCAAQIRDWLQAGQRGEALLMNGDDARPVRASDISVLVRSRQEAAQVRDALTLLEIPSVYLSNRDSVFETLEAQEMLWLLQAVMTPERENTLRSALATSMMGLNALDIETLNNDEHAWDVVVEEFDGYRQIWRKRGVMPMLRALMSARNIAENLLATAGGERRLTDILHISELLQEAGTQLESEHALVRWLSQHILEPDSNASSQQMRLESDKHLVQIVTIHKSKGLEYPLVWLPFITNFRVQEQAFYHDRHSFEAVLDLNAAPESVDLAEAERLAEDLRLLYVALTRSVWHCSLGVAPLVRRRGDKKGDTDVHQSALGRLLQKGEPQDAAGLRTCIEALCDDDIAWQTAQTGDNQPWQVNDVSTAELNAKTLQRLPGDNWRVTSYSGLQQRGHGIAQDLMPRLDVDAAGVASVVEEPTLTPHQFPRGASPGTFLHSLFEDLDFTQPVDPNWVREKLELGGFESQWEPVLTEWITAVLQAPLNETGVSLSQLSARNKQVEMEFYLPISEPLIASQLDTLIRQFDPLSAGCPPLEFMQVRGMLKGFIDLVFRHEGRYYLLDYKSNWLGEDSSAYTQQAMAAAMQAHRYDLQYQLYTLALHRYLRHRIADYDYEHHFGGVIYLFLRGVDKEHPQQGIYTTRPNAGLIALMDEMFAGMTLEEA", "experiment": "E. coli RecBCD inhibitors, dose response, counter-screen for AddAB inhibitor project, absorbance, V66 E. coli, mutant T4 phage (AID 492957)", "format": "functional, cell-based, Escherichia coli str. K-12 substr. MG1655"}, "[11]": {"experiment": "cytotoxicity in HEK-293T cells, dose response, cytotoxicity control for TCR NF-kB inhibitor project, luminescence, T-cell screen hits (AID 489026);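 note: cells exposed to compound about 14 hours before the viability readout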", "format": "functional, cell-based"}, "Nonstructural protein 1": {"molecular_target": "Nonstructural protein 1 (Influenza A virus, UniProt Q194T2)", "sequence (Q194T2 whole entry)": "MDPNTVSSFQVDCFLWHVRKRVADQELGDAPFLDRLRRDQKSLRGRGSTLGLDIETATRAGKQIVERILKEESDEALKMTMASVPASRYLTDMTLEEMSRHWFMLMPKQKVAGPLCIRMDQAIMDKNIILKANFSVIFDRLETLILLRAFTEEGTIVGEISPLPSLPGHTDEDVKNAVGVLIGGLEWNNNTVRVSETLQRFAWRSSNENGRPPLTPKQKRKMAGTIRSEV", "format": "functional, Influenza A virus (A/California/07/2009(H1N1))"}, "[12]": {"experiment": "Counterscreen for AddAB inhibitors: absorbance-based bacterial cell-based high throughput dose response assay for inhibitors of bacterial viability. [Related pubchem assays (depositor defined):AID435030, AID449728, AID449731, AID488942, AID488955, AID488956]", "format": "functional"}, "HEK293": {"tested_on": "HEK293", "experiment": "inhibitors of LMP1-driven NF-kB reporter, dose response, cell-based, HEK293, luciferase, cherry-pick (AID 588343)", "format": "functional", "settings": "Homo sapiens"}, "[13]": {"molecular_target": "Heat shock protein HSP 90-alpha (Homo sapiens, UniProt P07900)", "format": "functional, organism-based"}, "INS1": {"tested_on": "INS1", "experiment": "beta cell apoptosis inhibitors, cytokine rescue, dose response, luminescence, retest (AID 449756);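 note: cell death triggered by IL-1 beta plus TNF-alpha plus IFN-gamma mixture; protective hits raise ATP signal compared with cytokine alone wells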", "format": "functional, cell-based", "settings": "Rattus norvegicus"}, "[14]": {"molecular_target": "T3, Alkaline phosphatase, tissue-nonspecific isozyme (Homo sapiens, UniProt P05186)", "T3 sequence (P05186 whole entry)": "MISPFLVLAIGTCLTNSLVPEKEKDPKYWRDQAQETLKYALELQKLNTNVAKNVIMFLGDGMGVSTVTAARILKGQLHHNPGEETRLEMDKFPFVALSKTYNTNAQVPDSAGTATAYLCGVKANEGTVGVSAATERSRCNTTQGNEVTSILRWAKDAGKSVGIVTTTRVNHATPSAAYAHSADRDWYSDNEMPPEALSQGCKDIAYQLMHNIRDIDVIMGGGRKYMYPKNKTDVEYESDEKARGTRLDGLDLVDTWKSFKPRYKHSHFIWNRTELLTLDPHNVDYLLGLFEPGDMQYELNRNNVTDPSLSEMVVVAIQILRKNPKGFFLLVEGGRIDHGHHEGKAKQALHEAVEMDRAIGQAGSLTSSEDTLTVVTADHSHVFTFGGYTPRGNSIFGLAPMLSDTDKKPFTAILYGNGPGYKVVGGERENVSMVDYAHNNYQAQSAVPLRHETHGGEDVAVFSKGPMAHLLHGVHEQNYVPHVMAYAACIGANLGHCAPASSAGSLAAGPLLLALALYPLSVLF"}, "[15]": {"molecular_target": "Intestinal-type alkaline phosphatase (Mus musculus, UniProt P24822)", "experiment": "PubChem AID 488874", "format": "functional"}, "[16]": {"molecular_target": "T4, Intestinal-type alkaline phosphatase (Homo sapiens, UniProt P09923)", "T4 sequence (P09923 whole entry)": "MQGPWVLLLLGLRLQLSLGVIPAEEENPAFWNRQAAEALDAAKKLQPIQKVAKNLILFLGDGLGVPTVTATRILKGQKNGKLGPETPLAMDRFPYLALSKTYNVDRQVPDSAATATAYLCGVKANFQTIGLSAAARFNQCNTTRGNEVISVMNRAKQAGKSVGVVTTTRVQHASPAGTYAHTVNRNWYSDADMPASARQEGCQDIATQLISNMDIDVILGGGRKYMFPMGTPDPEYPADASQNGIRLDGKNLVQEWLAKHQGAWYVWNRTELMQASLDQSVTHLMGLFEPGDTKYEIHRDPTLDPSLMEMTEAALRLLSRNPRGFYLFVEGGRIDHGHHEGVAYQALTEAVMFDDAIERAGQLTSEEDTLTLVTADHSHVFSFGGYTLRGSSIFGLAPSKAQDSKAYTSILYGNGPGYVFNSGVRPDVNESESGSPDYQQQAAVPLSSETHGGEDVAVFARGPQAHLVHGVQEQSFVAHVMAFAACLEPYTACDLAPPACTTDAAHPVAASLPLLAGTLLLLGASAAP", "experiment": "human intestinal alkaline phosphatase activators, dose response, biochemical, luminescence, uHTS hits (AID 463120)", "format": "functional"}, "[17]": {"molecular_target": "T4, Intestinal-type alkaline phosphatase", "experiment": "human IAP activators, dose response, biochemical, luminescent, uHTS hits, set 2 (AID 488817);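 note: potency of activators that raise enzyme activity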", "format": "functional"}, "[18]": {"molecular_target": "T3, Alkaline phosphatase, tissue-nonspecific isozyme", "experiment": "TNAP enzyme activators, dose response, selectivity assay for human IAP activator project, biochemical, TNAP isozyme, human IAP uHTS hits (AID 488886);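 note: potency of compounds raising TNAP activity as a selectivity check on IAP activators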", "format": "functional"}, "cells [19]": {"experiment": "cells", "format": "functional"}}, "note": "Activity calls are given as the source filed them."}
{"smiles": "Oc1ccc2ccccc2c1N=Nc1ccccn1", "values": [{"measurement": "EC50", "setting": "[1]", "value": "10.8 µM (active)"}, {"measurement": "EC50", "setting": "cells [2]", "value": "24 µM (active)"}, {"measurement": "EC50", "setting": "[3]", "value": "2.43 µM (active)"}, {"measurement": "EC50", "setting": "[4]", "value": "11.4 µM (active)"}, {"measurement": "EC50", "setting": "[5]", "value": "2.29 µM (active)"}, {"measurement": "EC50", "setting": "[6]", "value": "0.471 µM (active)"}, {"measurement": "EC50", "setting": "cells [7]", "value": "41 µM (active)"}, {"measurement": "IC50", "setting": "[8]", "value": "5.12 µM (active)"}, {"measurement": "EC50", "setting": "[9]", "value": "3.4 µM (active)"}, {"measurement": "EC50", "setting": "Beta-galactosidase", "value": "25.7 µM (active)"}, {"measurement": "IC50", "setting": "[10]", "value": "> 32", "unit": "µM"}, {"measurement": "IC50", "setting": "Exodeoxyribonuclease V", "value": "> 118 µM (inactive)"}, {"measurement": "IC50", "setting": "[11]", "value": "> 80 µM (inactive)"}, {"measurement": "IC50", "setting": "Nonstructural protein 1", "value": "13.9 µM (active)"}, {"measurement": "IC50", "setting": "[12]", "value": "> 118 µM (inactive)"}, {"measurement": "AC50", "setting": "HEK293", "value": "7.41 µM (active)"}, {"measurement": "AC50", "setting": "[13]", "value": "2.7 µM (active)"}, {"measurement": "AC50", "setting": "INS1", "value": "0.746 µM (active)"}]}
{"smiles": "C=CCN1C(=O)C2(NNc3ccccc3O2)c2ccccc21", "note": "(centres undefined)", "values": [{"measurement": "EC50", "setting": "[14]", "value": "< 0.195 µM (not active)"}, {"measurement": "IC50", "setting": "[15]", "value": "14.2 µM (active)"}, {"measurement": "EC50", "setting": "[16]", "value": "11.3 µM (active)"}, {"measurement": "EC50", "setting": "[17]", "value": "0.514 µM (active)"}, {"measurement": "EC50", "setting": "[18]", "value": "0.636 µM (active)"}, {"measurement": "IC50", "setting": "cells [19]", "value": "11.7 µM (active)"}]}
